# From patent US10307413B2, “Tetrahydro- and dihydro-isoquinoline PRMT5 inhibitors and uses thereof” (Epizyme, Inc., priority 2013, dated 2019)
# pEC50, pIC50: −log10 of the molar value. Read-outs that look alike come from different tables or passages of the source.
# Key:
# [1] = test system: symmetric di-methyl arginine in Z-138 cells; assay: Z-138 Methylation Assay (In Cell Western for symmetric di-methyl arginine and DNA content); assay type: cell-based; details: Homo sapiens, read-out: ICW EC50
# In short: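 Z-138 cells (50,000 cells/mL) treated with compound 96 h at 37 °C, then fixed and stained for symmetric di-methyl arginine (800 nm) with DRAQ5 DNA counterstain (700 nm) on Licor Odyssey.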
# PRMT5/MEP50 = PRMT5/MEP50 (Homo sapiens (Human), UniProt O14744); assay: PRMT5 Biochemical Assay (PRMT5/MEP50 enzyme assay on peptide substrate, 3H-SAM Flashplate)
# Sequence of PRMT5/MEP50 (O14744 other isoform, or with tags, fused parts or gaps): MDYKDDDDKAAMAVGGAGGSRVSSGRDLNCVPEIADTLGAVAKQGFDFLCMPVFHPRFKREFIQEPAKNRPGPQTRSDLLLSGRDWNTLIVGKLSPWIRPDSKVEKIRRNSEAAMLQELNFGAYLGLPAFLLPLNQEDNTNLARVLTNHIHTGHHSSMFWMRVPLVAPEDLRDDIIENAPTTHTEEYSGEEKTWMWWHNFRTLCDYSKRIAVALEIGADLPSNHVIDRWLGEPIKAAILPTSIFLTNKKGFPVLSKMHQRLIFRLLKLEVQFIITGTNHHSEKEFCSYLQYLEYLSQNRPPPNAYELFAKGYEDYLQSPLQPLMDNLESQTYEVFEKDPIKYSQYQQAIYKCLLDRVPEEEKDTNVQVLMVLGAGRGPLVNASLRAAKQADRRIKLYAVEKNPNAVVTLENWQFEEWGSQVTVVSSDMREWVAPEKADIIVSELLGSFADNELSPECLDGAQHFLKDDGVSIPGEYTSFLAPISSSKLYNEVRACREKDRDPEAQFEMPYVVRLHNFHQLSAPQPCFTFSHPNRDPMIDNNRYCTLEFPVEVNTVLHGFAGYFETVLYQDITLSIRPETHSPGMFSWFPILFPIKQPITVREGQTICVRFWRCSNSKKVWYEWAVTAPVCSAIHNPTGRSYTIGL
# Sequence of PRMT5/MEP50 (Q9BQA1 other isoform, or with tags, fused parts or gaps partner): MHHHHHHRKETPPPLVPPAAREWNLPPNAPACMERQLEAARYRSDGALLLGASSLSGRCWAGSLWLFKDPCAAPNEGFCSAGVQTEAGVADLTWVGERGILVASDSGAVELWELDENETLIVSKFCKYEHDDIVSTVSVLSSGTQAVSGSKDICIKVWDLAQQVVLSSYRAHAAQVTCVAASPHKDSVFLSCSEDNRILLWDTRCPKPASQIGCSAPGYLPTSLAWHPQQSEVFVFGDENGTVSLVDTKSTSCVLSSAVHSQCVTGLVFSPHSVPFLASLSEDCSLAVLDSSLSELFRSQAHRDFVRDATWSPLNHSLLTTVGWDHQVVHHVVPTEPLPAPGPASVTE
# In short: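 Radiometric methylation of a biotin-tagged H4(1-15) peptide by human PRMT5/MEP50 from baculovirus/Sf9, with ³H-SAM incorporation read on streptavidin Flashplates. Buffer: Bicine pH 7.6, TCEP, BSG, Tween20; compound preincubated 30 min at 25 °C; stopped with 600 µM final unlabeled SAM. DMSO and SAH controls; IC50 from fitted % inhibition.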
# Z-138 cell line = assay: Z-138 Proliferation Assay (Cell Titer Glo, 5 days); assay type: cell-based; details: Homo sapiens, read-out: Proliferation EC50
# In short: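 Z-138 cells exposed 5 days at 37 °C, 5% CO2 to nine-point 3-fold dilutions (final top 20 μM, 0.2% DMSO), in triplicate. Viability read as ATP by CellTiter-Glo luminescence; IC50 from 4-parameter fit of normalized dose-response curves.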
# [2] = 120 h, Z-138 cells, 5 days, Cell Titer Glo
SMILES,pEC50 ([1]; In Cell Western methylation),pIC50 (PRMT5/MEP50; PRMT5 biochemical assay),"pEC50 (Z-138 cell line; Z-138, 120 h)",pEC50 (Z-138 cell line; [2]),pEC50 [1],pIC50 (PRMT5/MEP50),"pEC50 (Z-138 cell line; 120 h, Z-138 cells, 5 days)"
CCSCCNc1cc(C(=O)NC[C@H](O)CN2CCc3ccccc3C2)ncn1 [Compound 556],> 7.00,> 7.00,6.00 to 7.00,,,,
CC(=O)N1CCC[C@H](Nc2cc(C(=O)NC[C@H](O)CN3CCc4ccccc4C3)ncn2)C1 [Compound 572],> 7.00,> 7.00,,6.00 to 7.00,,,
O=C(NC[C@H](O)CN1CCc2ccccc2C1)c1ccc(OC2CCCNC2)cc1 (stereo partly drawn) [Compound 347],,,,,> 7.00,> 7.00,6.00 to 7.00
O=C(NC[C@H](O)CN1CCc2ccccc2C1)C1=CC2=N[C@@H](CO)CN2C=N1 [Compound 634],< 6.00,6.00 to 7.00,,< 5.30,,,
O=C(NC[C@H](O)CN1CCc2ccccc2C1)c1cc(N[C@H]2C[C@H](O)C2)ncn1 [Compound 521],> 7.00,> 7.00,,6.00 to 7.00,,,
CCN(C)CCOc1ccc(C(=O)NC[C@H](O)CN2CCc3ccccc3C2)cc1 [Compound 385],,,,,> 7.00,> 7.00,5.00 to 6.00
CN1CCC(Nc2cc(C(=O)NC[C@H](O)CN3CCc4ccccc4C3)ncn2)CC1 [Compound 206],,,,,6.00 to 7.00,> 7.00,5.00 to 6.00
O=C(NC[C@H](O)CN1CCc2ccccc2C1)c1ccnc(NC2CN(C(=O)C3CCC3)C2)c1 [Compound 530],> 7.00,> 7.00,,> 7.00,,,
CC(CNC(=O)c1cc(NC2COC2)ncn1)CN1CCc2ccccc2C1 (stereo not drawn) [Compound 657],> 7.00,> 7.00,,< 5.30,,,
CC(=O)N1CCC(Nc2cc(C(=O)NC[C@H](O)CN3CCc4cccc(C)c4C3)ncn2)CC1 [Compound 664],> 7.00,> 7.00,,6.00 to 7.00,,,
O=C(NC[C@H](O)CN1CCc2ccccc2C1)c1cc(NC2CNC2)ccn1 [Compound 565],> 7.00,> 7.00,,6.00 to 7.00,,,
O=C(NC[C@H](O)CN1CCc2ccccc2C1)c1cc(N[C@H]2CC[C@@H](O)CC2)ncn1 [Compound 592],> 7.00,> 7.00,,6.00 to 7.00,,,
CC(=O)N1CCC(Nc2cc(C(=O)NCC(O)C(C)N3CCc4ccccc4C3)ncn2)CC1 (stereo not drawn) [Compound 609],< 6.00,6.00 to 7.00,,< 5.30,,,
CN(c1cc(C(=O)NC[C@H](O)CN2CCc3ccccc3C2)ncn1)C1COC1 [Compound 448],< 6.00,> 7.00,,< 4.70,,,
CN(C)c1nc(NC2CNC2)cc(C(=O)NC[C@H](O)CN2CCc3ccccc3C2)n1 [Compound 529],6.00 to 7.00,> 7.00,,6.00 to 7.00,,,
COc1nc(NC2CNC2)cc(C(=O)NC[C@H](O)CN2CCc3ccccc3C2)n1 [Compound 501],6.00 to 7.00,> 7.00,,5.00 to 6.00,,,
O=C(NC[C@H](O)CN1CCc2ccccc2C1)c1cc(NC2CN(C(=O)C3CC3)C2)ccn1 [Compound 636],> 7.00,> 7.00,,> 7.00,,,
CNCCN(C)c1nc(NC2CNC2)cc(C(=O)NC[C@H](O)CN2CCc3ccccc3C2)n1 [Compound 482],6.00 to 7.00,> 7.00,,5.00 to 6.00,,,
O=C(NC[C@H](O)CN1CCc2ccccc2C1)C1=CC2=NC(CO)CN2C=N1 (stereo partly drawn) [Compound 473],< 6.00,6.00 to 7.00,,< 4.70,,,
O=C(NC[C@H](O)CN1CCc2ccccc2C1)c1ccc2cccnc2c1O [Compound 344],,,,,< 6.00,6.00 to 7.00,5.00 to 6.00
CNCCN(C)c1nc(NC2COC2)cc(C(=O)NC[C@H](O)CN2CCc3ccccc3C2)n1 [Compound 476],> 7.00,> 7.00,,6.00 to 7.00,,,
COCCNCCOc1ccc2cc(C(=O)NC[C@H](O)CN3CCc4ccccc4C3)ccc2c1 [Compound 369],,,,,> 7.00,> 7.00,5.00 to 6.00
CN(CCN)c1nc(NC2CNC2)cc(C(=O)NC[C@H](O)CN2CCc3ccccc3C2)n1 [Compound 481],6.00 to 7.00,> 7.00,,5.00 to 6.00,,,
O=C(NC[C@H](O)CN1CCc2ccccc2C1)c1cc(NC2CCC2)ncn1 [Compound 355],,,,,> 7.00,> 7.00,> 7.00
Cc1cnc(NC2CCN(C)C2)cc1C(=O)NC[C@H](O)CN1CCc2ccccc2C1 (stereo partly drawn) [Compound 401],6.00 to 7.00,> 7.00,,5.00 to 6.00,,,
CC(C)(C)C(=O)N1CC(Nc2cc(C(=O)NC[C@H](O)CN3CCc4ccccc4C3)ccn2)C1 [Compound 505],> 7.00,> 7.00,,6.00 to 7.00,,,

SMILES,pEC50 ([1]; In Cell Western methylation),pIC50 (PRMT5/MEP50; PRMT5 biochemical assay),"pEC50 (Z-138 cell line; Z-138, 120 h)",pEC50 (Z-138 cell line; [2]),pEC50 [1],pIC50 (PRMT5/MEP50),"pEC50 (Z-138 cell line; 120 h, Z-138 cells, 5 days)"
CN1CC(Nc2ccnc(C(=O)NC[C@H](O)CN3CCc4ccccc4C3)c2)C1 [Compound 575],> 7.00,> 7.00,,< 5.30,,,
CC(=O)N1CCC(Nc2cc(C(=O)NCC(C)CN3CCc4ccccc4C3)ccn2)CC1 (stereo not drawn) [Compound 660],> 7.00,> 7.00,,6.00 to 7.00,,,
O=C(NC[C@H](O)CN1CCc2ccccc2C1)c1ccc(OCCN2CCOCC2)cc1 [Compound 387],,,,,> 7.00,> 7.00,6.00 to 7.00
O=C(NC[C@H](O)CN1CCc2ccccc2C1)c1cc(N[C@H]2CC[C@@H](C(=O)N3CCOCC3)CC2)ncn1 [Compound 599],> 7.00,> 7.00,,5.00 to 6.00,,,
CC(=O)N1CCC(Nc2cc(C(=O)NC[C@H](O)CN3CCc4ccccc4C3)cc(N3CCOCC3)n2)CC1 [Compound 611],> 7.00,> 7.00,,> 7.00,,,
CN(C)C(=O)CN1CCC(Nc2cc(C(=O)NC[C@H](O)CN3CCc4ccccc4C3)ncn2)CC1 [Compound 567],> 7.00,> 7.00,,6.00 to 7.00,,,
CC(=O)N1CC(Nc2cc(C(=O)NCCCN3CCc4ccccc4C3)ncn2)C1 [Compound 652],6.00 to 7.00,> 7.00,,< 5.30,,,
CN(C[C@H](O)CN1CCc2ccccc2C1)C(=O)c1ccnc(N(C)C2CCOCC2)c1 [Compound 358],,,,,6.00 to 7.00,5.00 to 6.00,< 4.70
CC(C)(O)CN1CCC(Nc2cc(C(=O)NC[C@H](O)CN3CCc4ccccc4C3)ncn2)CC1 [Compound 579],> 7.00,> 7.00,,6.00 to 7.00,,,
CC(=O)N1CC(Nc2cc(C(=O)NCC(F)CN3CCc4ccccc4C3)ncn2)C1 (stereo not drawn) [Compound 655],6.00 to 7.00,6.00 to 7.00,,< 5.30,,,
CCCN(C)c1nc(NC2COC2)cc(C(=O)NC[C@H](O)CN2CCc3ccccc3C2)n1 [Compound 459],> 7.00,> 7.00,,> 7.00,,,
Cc1nc(NC2COC2)cc(C(=O)NC[C@H](O)CN2CCc3ccccc3C2)n1 [Compound 399],> 7.00,> 7.00,,5.00 to 6.00,,,
CC(=O)N1CC[C@H](Nc2cc(C(=O)NC[C@H](O)CN3CCc4ccccc4C3)ncn2)C1 [Compound 582],> 7.00,> 7.00,,5.00 to 6.00,,,
CC(=O)N1CC(Nc2cc(C(=O)NC[C@H](O)CN3CCc4cccc(C)c4C3)ncn2)C1 [Compound 663],> 7.00,> 7.00,,6.00 to 7.00,,,
CSCCN1CC(Nc2cc(C(=O)NC[C@H](O)CN3CCc4ccccc4C3)ncn2)C1 [Compound 568],6.00 to 7.00,> 7.00,,5.00 to 6.00,,,
CC(=O)N1CCC(Nc2cc(C(=O)NCC(O)C(C)N3CCc4ccccc4C3)ccn2)CC1 (stereo not drawn) [Compound 692],6.00 to 7.00,6.00 to 7.00,,< 5.30,,,
CCCC(=O)N1CCC(Nc2cc(C(=O)NC[C@H](O)CN3CCc4ccccc4C3)ncn2)CC1 [Compound 407],> 7.00,> 7.00,,> 7.00,,,
CCC(=O)N1CCC(Nc2cc(C(=O)NC[C@H](O)CN3CCc4ccccc4C3)ncn2)CC1 [Compound 406],> 7.00,> 7.00,,> 7.00,,,
CC(=O)N1CCC(Nc2cc(C(=O)NCCCN3CCc4ccccc4C3)ccn2)CC1 [Compound 654],> 7.00,> 7.00,,5.00 to 6.00,,,
O=C(NC[C@H](O)CN1CCc2ccccc2C1)c1cc(N[C@H]2C[C@H](C(=O)N3CCCCC3)C2)ncn1 [Compound 511],> 7.00,> 7.00,,> 7.00,,,
Cc1cccc2c1CN(C[C@@H](O)CNC(=O)c1cc(NC3COC3)ncn1)CC2 [Compound 673],> 7.00,> 7.00,,5.00 to 6.00,,,
COC(CNC(=O)c1cc(NC2CCNCC2)ncn1)CN1CCc2ccccc2C1 (stereo not drawn) [Compound 538],< 6.00,5.00 to 6.00,,< 5.30,,,
O=C(NC[C@H](O)CN1CCc2ccccc2C1)c1cc(NC2CCNCC2)ccn1 [Compound 549],6.00 to 7.00,> 7.00,,< 5.30,,,
CC(NC(=O)c1cc(NC2CCN(C)CC2)ncn1)C(O)CN1CCc2ccccc2C1 (stereo not drawn) [Compound 535],6.00 to 7.00,6.00 to 7.00,,< 5.30,,,
O=C(NC[C@H](O)CN1CCc2ccccc2C1)c1cc(NC2CNC2)nc(N2CCC2)n1 [Compound 502],6.00 to 7.00,> 7.00,,5.00 to 6.00,,,
CN(C[C@H](O)CN1CCc2ccccc2C1)C(=O)c1cc(N(C)C2CCOCC2)ncn1 [Compound 313],,,,,> 7.00,> 7.00,5.00 to 6.00
